Measured values published in US12522587B2, “Cancer treatments targeting cancer stem cells” (Remedy Plan, Inc., priority 2018, dated 2026).

System: AGS human gastric adenocarcinoma cells
Assay: Human microarray study (Affymetrix Clariom S) of treated AGS cells
Format: cell-based
Settings: two days
Experimental: AGS human gastric adenocarcinoma cells were treated with compound I-1, or DMSO alone (as a negative control) for two days. After two days, RNA was isolated from compound I-1 treated cells and DMSO treated cells, in duplicate, and subjected to microarray analysis using AFFYMETRIX CLARIOM S microarrays. Data were represented as fold change relative to the compound I-1 treated cells, negative values represented genes that were on higher in compound I-1 treated cells than in DMSO treated cells, and positive values represented genes that were on higher in DMSO treated cells than in compound I-1 treated cells. Values were averaged for the duplicate samples. We included data for the genes whose expression was altered by more than 3 fold, either up or down, in response to compound I-1.
Negative numbers indicate fold upregulation upon drug treatment. Positive numbers indicate fold downregulation upon drug treatment. […] In addition, Chac1, PCK2, and SLC7A11 were all shown to have a tumor promoting activity and to be associated with the more dangerous and lethal forms of cancer, and these three genes were the three most strongly repressed genes measured in this analysis. There were other examples in the data that supported this model, but the overall model was that compound I-1 increased the expression of tumor suppressor genes, and decreased the expression of tumor promoting genes.

SMILES: CCC(=O)N1CCc2cc(-c3ccc(C(=O)NCc4cccnc4)cc3)ccc21 [Compound I-1]
- expression of tumor promoting genes (microarray, overall model): decreased
- expression of tumor suppressor genes (microarray, overall model): increased
- Fold Change ABHD4 (negative = upregulated): −15.57 fold
- Fold Change ACAT2 (negative = upregulated): −5.41 fold
- Fold Change ACSS2 (negative = upregulated): −8.4 fold
- Fold Change AKR1B10 (negative = upregulated): −4.25 fold
- Fold Change AKR1B15 (negative = upregulated): −3.05 fold
- Fold Change AKR1C1 (negative = upregulated): −16.86 fold
- Fold Change AKR1C2 (negative = upregulated): −6.95 fold
- Fold Change AKR1C3 (negative = upregulated): −8.57 fold
- Fold Change ANO6 (negative = upregulated): −3.15 fold
- Fold Change ARHGEF3 (negative = upregulated): −6.93 fold
- Fold Change ARRDC3 (negative = upregulated): −5.99 fold
- Fold Change AVPI1 (negative = upregulated): −3.14 fold
- Fold Change BCL2L11 (negative = upregulated): −4 fold
- Fold Change BCL6 (negative = upregulated): −3.01 fold
- Fold Change BHLHE40 (negative = upregulated): −7.94 fold
- Fold Change CA5B (negative = upregulated): −4.1 fold
- Fold Change CBFA2T2 (negative = upregulated): −3.24 fold
- Fold Change CCNG2 (negative = upregulated): −3.58 fold
- Fold Change CDA (negative = upregulated): −3.79 fold
- Fold Change CDC42EP4 (negative = upregulated): −3.75 fold
- Fold Change CDKN1A (negative = upregulated): −3.11 fold
- Fold Change CNNM2 (negative = upregulated): −3.68 fold
- Fold Change CREBRF (negative = upregulated): −5.55 fold
- Fold Change CSF1 (negative = upregulated): −3.31 fold
- Fold Change CXCL17 (negative = upregulated): −4.1 fold
- Fold Change CYP51A1 (negative = upregulated): −4.74 fold
- Fold Change DBP (negative = upregulated): −10.5 fold
- Fold Change DHCR7 (negative = upregulated): −8.77 fold
- Fold Change DHCR24 (negative = upregulated): −3.44 fold
- Fold Change DNAJB4 (negative = upregulated): −3.09 fold
- Fold Change DNAJB5 (negative = upregulated): −3.84 fold
- Fold Change DNMBP (negative = upregulated): −4 fold
- Fold Change DUSP10 (negative = upregulated): −27.17 fold
- Fold Change EBP (negative = upregulated): −3.69 fold
- Fold Change EDN2 (negative = upregulated): −3 fold
- Fold Change EFNA1 (negative = upregulated): −5.15 fold
- Fold Change EPHA4 (negative = upregulated): −4.56 fold
- Fold Change EYA3 (negative = upregulated): −3.81 fold
- Fold Change F2RL1 (negative = upregulated): −3.37 fold
- Fold Change FAM46A (negative = upregulated): −4.76 fold
- Fold Change FAM46C (negative = upregulated): −3.6 fold
- Fold Change FAM160A1 (negative = upregulated): −3.86 fold
- Fold Change FASN (negative = upregulated): −5.82 fold
- Fold Change FDFT1 (negative = upregulated): −7.56 fold
- Fold Change FGA (negative = upregulated): −13.67 fold
- Fold Change FGG (negative = upregulated): −4.11 fold
- Fold Change G6PD (negative = upregulated): −3.11 fold
- Fold Change GALM (negative = upregulated): −3.17 fold
- Fold Change GATSL2 (negative = upregulated): −3.58 fold
- Fold Change GDF15 (negative = upregulated): −4.83 fold
- Fold Change GNE (negative = upregulated): −3.21 fold
- Fold Change GRHL3 (negative = upregulated): −4.96 fold
- Fold Change HHLA2 (negative = upregulated): −3.59 fold
- Fold Change HK1 (negative = upregulated): −6.34 fold
- Fold Change HMGCR (negative = upregulated): −4.8 fold
- Fold Change HMGCS1 (negative = upregulated): −9.9 fold
- Fold Change HMOX1 (negative = upregulated): −14.23 fold
- Fold Change HSPA1A; HSPA1B (negative = upregulated): −5.34 fold
- Fold Change HSPA1B; HSPA1A (negative = upregulated): −5.04 fold
- Fold Change HSPB8 (negative = upregulated): −4.71 fold
- Fold Change IDI1 (negative = upregulated): −5.77 fold
- Fold Change IL1RN (negative = upregulated): −4.04 fold
- Fold Change ILF2 (negative = upregulated): −3.2 fold
- Fold Change INPP5D (negative = upregulated): −3.12 fold
- Fold Change INSIG1 (negative = upregulated): −8.5 fold
- Fold Change JAG1 (negative = upregulated): −3.31 fold
- Fold Change JAK2 (negative = upregulated): −3.6 fold
- Fold Change KAT6B (negative = upregulated): −3.77 fold
- Fold Change LEMD1 (negative = upregulated): −3.16 fold
- Fold Change LIPG (negative = upregulated): −3.65 fold
- Fold Change LNX1 (negative = upregulated): −4.32 fold
- Fold Change LPIN1; MIR548S (negative = upregulated): −3.22 fold
- Fold Change LY6D (negative = upregulated): −4.81 fold
- Fold Change LYPD3 (negative = upregulated): −4.09 fold
- Fold Change MICA (negative = upregulated): −3.66 fold
- Fold Change MICB (negative = upregulated): −12.71 fold
- Fold Change MID1 (negative = upregulated): −3.25 fold
- Fold Change MSMO1 (negative = upregulated): −9.47 fold
- Fold Change MT1E (negative = upregulated): −3.03 fold
- Fold Change MT1L (negative = upregulated): −3 fold
- Fold Change MTSS1L (negative = upregulated): −3.41 fold
- Fold Change MVD (negative = upregulated): −3.82 fold
